From patent US20150272939A1, “Identification of Small Molecule Inhibitors of Jumonji AT-Rich Interactive Domain 1A (JARID1A) and 1B (JARID1B) Histone Demethylase” (Yale University, priority 2012, published 2015)

Key:
[1] = AlphaScreen counterscreen against bio-H3K4me2 peptide in the absence of enzyme (artifact signal); conditions: for Artifact Signal (percent): effect of the compound when incubated with bio-H3K4me2 peptide (counterscreen, no enzyme); for Artifact signal: effect of the compound when it is incubated with bio-H3K4me2 peptide: counterscreen, no enzyme;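 as to all read-outs here: counterscreen run without enzyme against bio-H3K4me2 peptide to remove false positive hits from the JARID1 demethylase AlphaScreen screen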
[2] = biological target: T1, JARID1B (Homo sapiens, UniProt Q9UGL1); experiment: FLAG-JARID1B histone demethylase assay with AlphaScreen detection (HTS and dose response); format: biochemical; conditions: for Assay − Artifact Signal (percent): assay signal minus artifact signal; for inhibition at 20 µM: high-throughput screen, compound 20 μM, standard demethylase conditions (10 μM α-KG, 50 μM Fe (II)), read-out: Inhibitory effect (percent); for Assay Signal (percent) / Validation result of HTS active: effect of the compound in the JARID1B AlphaScreen demethylase assay: validation of HTS actives; for Assay Signal (percent): effect of compound in JARID1B AlphaScreen assay; for Validation result of HTS active: effect of the compound in the JARID1B AlphaScreen demethylase assay: total signal before subtraction of artifact signal;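 as to Assay Signal (percent): compound tested at 20 µM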;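 as to Assay − Artifact Signal (percent): compound tested at 20 µM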;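 as to all read-outs here: FLAG-tagged JARID1B at 4 nM acting on a biotinylated H3K4me3 peptide, demethylation read by AlphaScreen luminescence, with hits checked against bio-H3K4me2 without enzyme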
T1 construct: The FLAG tagged full length JARID1B enzyme was expressed in Sf21 insect cells using FLAG-JARID1B baculoviruses; FLAG (N); made in house; host or cells: Sf21 insect cells (baculovirus)
T1 sequence (Q9UGL1 whole entry): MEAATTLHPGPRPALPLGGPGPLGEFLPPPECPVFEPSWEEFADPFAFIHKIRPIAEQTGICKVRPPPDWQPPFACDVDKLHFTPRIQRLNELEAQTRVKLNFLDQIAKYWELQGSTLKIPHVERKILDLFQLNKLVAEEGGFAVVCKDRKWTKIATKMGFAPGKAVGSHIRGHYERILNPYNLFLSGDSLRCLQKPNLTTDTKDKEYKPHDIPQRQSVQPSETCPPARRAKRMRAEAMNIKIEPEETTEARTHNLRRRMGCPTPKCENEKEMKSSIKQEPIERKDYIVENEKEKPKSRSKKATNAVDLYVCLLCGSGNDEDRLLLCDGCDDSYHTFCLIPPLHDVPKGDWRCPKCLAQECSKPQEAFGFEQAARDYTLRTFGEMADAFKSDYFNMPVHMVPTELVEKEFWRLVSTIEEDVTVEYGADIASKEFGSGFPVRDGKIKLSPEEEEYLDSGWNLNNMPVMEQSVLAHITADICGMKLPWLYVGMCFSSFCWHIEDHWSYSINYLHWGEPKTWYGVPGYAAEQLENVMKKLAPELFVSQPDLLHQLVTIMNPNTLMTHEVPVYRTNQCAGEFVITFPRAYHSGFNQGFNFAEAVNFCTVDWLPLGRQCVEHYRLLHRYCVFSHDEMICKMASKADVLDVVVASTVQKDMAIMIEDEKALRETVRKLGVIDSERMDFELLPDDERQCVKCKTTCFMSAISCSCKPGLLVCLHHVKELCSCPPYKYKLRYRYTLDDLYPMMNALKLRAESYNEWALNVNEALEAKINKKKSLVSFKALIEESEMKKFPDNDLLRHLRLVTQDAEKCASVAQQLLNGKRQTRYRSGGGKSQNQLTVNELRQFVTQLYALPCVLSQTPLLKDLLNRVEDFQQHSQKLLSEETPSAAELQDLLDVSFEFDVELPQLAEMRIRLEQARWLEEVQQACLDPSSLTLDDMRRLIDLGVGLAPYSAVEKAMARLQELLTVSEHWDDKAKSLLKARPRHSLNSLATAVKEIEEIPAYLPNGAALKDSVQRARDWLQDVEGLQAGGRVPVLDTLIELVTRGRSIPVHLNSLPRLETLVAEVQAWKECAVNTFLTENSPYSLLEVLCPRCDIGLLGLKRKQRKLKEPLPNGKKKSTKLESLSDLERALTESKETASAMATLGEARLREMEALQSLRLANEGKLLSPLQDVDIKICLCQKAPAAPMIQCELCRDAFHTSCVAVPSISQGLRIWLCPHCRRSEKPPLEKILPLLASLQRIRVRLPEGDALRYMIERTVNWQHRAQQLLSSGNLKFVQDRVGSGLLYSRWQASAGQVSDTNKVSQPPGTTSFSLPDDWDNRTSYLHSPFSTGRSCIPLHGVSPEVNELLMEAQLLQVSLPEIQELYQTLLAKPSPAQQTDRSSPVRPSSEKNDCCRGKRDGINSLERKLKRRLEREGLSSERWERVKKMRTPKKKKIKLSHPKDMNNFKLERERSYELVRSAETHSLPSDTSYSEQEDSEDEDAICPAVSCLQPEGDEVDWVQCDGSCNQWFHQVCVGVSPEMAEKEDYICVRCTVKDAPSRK

Compound | Artifact Signal (percent) [1] [%] | Assay − Artifact Signal (percent) [2] [%] | inhibition at 20 µM [2] [%] | Assay Signal (percent) [2] [%] | Artifact signal: effect of the compound when it is incubated with bio-H3K4me2 peptide [1] | Validation result of HTS active: effect of the compound in the JARID1B AlphaScreen demethylase assay [2]
Cc1nnc(S)n1NCc1ccc2c(c1)OCO2 [YU147191] | 1.94 | 43.11 | 31.5 | 45.05 | – | –
c1ccc2c(NCc3ccncc3)cccc2c1 [YU145649] | 2.10 | 87.87 | 87.7 | 89.97 | – | –
O=C(Nc1ccc(N2CCCC2)c(C(=O)O)c1)c1ccc(Br)cc1 [YU208200] | – | – | 53 | – | 20.10 | 24.86
C=CCO[C@H]1[C@H](O)[C@H](OCC=C)[C@H](O)[C@@H](OCC=C)[C@@H]1O [YU035165] | 2.11 | 13.07 | 49.5 | 15.19 | – | –
N#CC(=Cc1cc(O)c(O)c(O)c1)C(N)=C(C#N)C#N (single isomer, unassigned) [YU154835, TYRPHOSTIN 51, reference compound] | 23.01 | 23.04 | 69.7 | 46.05 | – | –
COc1cc2cc3c4cc(OC)c(OC)cc4cc[n+]3c(C)c2cc1OC.[Cl-] [YU155528, CORALYNE CHLORIDE, reference compound] | – | – | 73.2 | – | −5.30 | −1.03
O=C(NC1=NC(=O)C(F)(C(F)(F)F)S1)NC1CCCCC1 (stereo not drawn) [YU153281] | 1.95 | 23.51 | 55.3 | 25.46 | – | –
Cc1cc(C(=O)Nc2c(C)n(C)n(-c3ccccc3)c2=O)c(C)o1 [YU153128] | 4.15 | 8.37 | 101 | 12.52 | – | –
C=CCn1c(-c2ccc([N+](=O)[O-])cc2)n[nH]c1=S [YU147005] | 3.36 | 34.06 | 36.8 | 37.42 | – | –
Cc1ccc(NC(=O)CC2SC3=NCCCN3C2=O)c(C)c1 (stereo not drawn) [YU152183] | – | – | 39.4 | – | 1.46 | 6.95
Cc1ccc(-n2sc3ccccc3c2=O)cc1 [YU146026] | 2.88 | 85.63 | 87.8 | 88.51 | – | –
O=c1c(O[C@@H]2O[C@H](CO)[C@H](O)[C@H](O)[C@H]2O)c(-c2ccc(O)c(O)c2)oc2cc(O)cc(O)c12 [YU221013, HYPEROSIDE, reference compound] | 9.46 | 41.83 | 44.9 | 51.29 | – | –
Cc1ccc(C)n1NC(=O)c1ccc(O)cc1 [YU145520] | – | – | 36.9 | – | 1.80 | 3.79
